Patent publication US3993754A (priority 1974, dated 1976)
Read-outs that look alike come from different tables or passages of the source. *1 amine or outer side, *2 acyl side, *3 side chain or, on linkers, in order; H or OH if unused. Where a SMILES comes first, the peptide text is derived from it. Bridges are numbered along the chain shown (N, C = ends). Roman numbers before positions name the chains, in order. [ ]: non-standard residue; d: D form. Actinocin(9to1) = Cc1c2oc3c(C)ccc(C(=O)[*:1])c3nc-2c(C(=O)[*:2])c(N)c1=O; NMeV = CN[C@H](C(=O)O)C(C)C; Sar = CNCC(=O)O

Columns and labels:
E.A. cells = assay: Light and electron microscopic examination of E.A. tumor cells after treatment; format: in vivo, mouse; details: 1 mg/kg (2 mg/kg in the first case), 1 hour to 5 days after treatment
Experimental: Electron microscopic studies of tissue cells were also conducted. For the electron microscopic studies, a mouse was inoculated with E.A. cells in the manner described above. Five days after the inoculation, liposomes containing actinomycin D at a concentration of 2 mg/kg were injected intraperitoneally. At intervals of 1, 6, 12 and 24 hours after the liposome injection, 0.2 ml of ascites fluid was aspirated from the mouse abdominal cavity with a syringe. The fluid was centrifuged and the pellet of E.A. cells was fixed and processed for examination in an electron microscope. […] Light and electron microscopic examination of E.A. tumor cells was also carried out 1 hour to 5 days after treatment with liposome-encapsulated and nonencapsulated actinomycin D at a dose of 1 mg/kg. […] There was an increase in lipid droplets, lyosomes and autophagic vacuoles and the ribosomes were clumped into distinct clusters. Fewer dividing cells were seen, at least after 24 hours post-treatment.

[1] = mice
Experimental: Female CF No. 1 (Carworth Farms) mice, 3 months of age, weighing between 27 and 29 grams, were used in each instance in these experiments. For toxicity studies, groups of 15 or 20 mice were given actinomycin D at different levels, either in the nonencapsulated or in the liposome-encapsulated forms. Toxicity of actinomycin D was tested by both intravenous and intraperitoneal injection. Experiments were carried out to test the therapeutic efficacy of the encapsulated actinomycin D against Ehrlich ascites (E. A.) tumor cells in vivo. In Experiment I, mice recieved 20 × 10^6 E.A. cells by intraperitoneal injection. After 5 days, separate groups were treated with one of the following: (1) 0.4 ml of 8 mM calcium chloride, (2) nonencapsulated actinomycin D (0.75 mg/kg), or (3) liposome-encapsulated actinomycin D (0.75 mg/kg). In Experiment II, two groups of 10 mice were similarly inoculated. Treatment of one group was begun after 3 days with 0.5 mg/kg of encapsulated actinomycin D, followed by injection on 4 consecutive days with 0.25 mg/kg. All injections were given intraperitoneally, in a volume of 0.4 ml in Experiment I, 0.2 ml in Experiment II.

[2] = tested on: Ehrlich ascites (E. A.) tumor cells; assay: Therapeutic efficacy against Ehrlich ascites tumor cells in vivo (survival time); set-up: species or system mice; details: Experiment I: single i.p. treatment 0.75 mg/kg, 5 days after inoculation of 20 × 10^6 E.A. cells; control 7.4 ± 3.11 days
Experimental: Referring to FIG. 1, there is illustrated the therapeutic effect of liposome-encapsulated actinomycin D on the survival of mice bearing E.A. tumor following single treatments given at 5 days after inoculation of 20 × 10^6 E.A. cells. A control is represented by line 11 on the graph, liposome-encapsulated actinomycin D at 0.75 mg/kg represented by line 12 and nonencapsulated actinomycin D at 0.75 mg/kg represented by line 13.
Referring to FIG. 2, there is shown graphically the therapeutic effect of liposome-encapsulated actinomycin D on the survival of mice bearing E.A. tumor with multiple daily treatments starting at day 3 after inoculation with 20 × 10^6 E.A. cells. In FIG. 2, the control is represented by line 14, liposome-encapsulated actinomycin D, first dose 0.50 mg/kg followed by four consecutive injections of 0.25 mg/kg, is represented by line 15. As is readily apparent from the graph, the increase in survival time after mutliple injections of encapsulated actinomycin D was even more impressive: 7.3 ± 2.26 days for the control versus 17.6 ± 2.17 days for the encapsulated actinomycin D. All of the control animals died before the first death occurred in the treatment group. In a separate experiment, it was observed that injection of liposomes prepared with KCl instead of actinomycin D had no effect on survival time.

Cc1c2oc3c(C)ccc(C(=O)N[C@@H]4C(=O)N[C@H](C(C)C)C(=O)N5CCC[C@H]5C(=O)N(C)CC(=O)N(C)[C@@H](C(C)C)C(=O)O[C@@H]4C)c3nc-2c(C(=O)N[C@@H]2C(=O)N[C@H](C(C)C)C(=O)N3CCC[C@H]3C(=O)N(C)CC(=O)N(C)[C@@H](C(C)C)C(=O)O[C@@H]2C)c(N)c1=O [actinomycin D] (I: T[dV]P[Sar][NMeV] / II: T[dV]P[Sar][NMeV]; ester I:1-I:C, II:1-II:C; linker I:N-II:N via Actinocin(9to1))
morphological damage of E.A. cells (E.A. cells): Significantly fewer E. A. cells were damaged | LD50 ([1]; given intravenously): 0.43 ± 0.04 mg/kg | LD50 ([1]; intraperitoneal injection): 0.59 ± 0.17 mg/kg | survival of some of the decedents ([1]; intraperitoneal injection): ≤ 14 days | average survival time of the decedents ([1]; intravenous, 0.3 mg/kg): 3.5 days | decedents out of 20 injected ([1]; intravenous, 0.3 mg/kg): 8 | time within which most of the deaths occurred ([1]; intravenous, doses of 0.5 mg/kg and above): ≤ 24 h | survival time after treatment [2]: slightly, but not significantly, less than the controls
